{"source": "patent US12534444B2", "about": "“Treatment of cancer/inhibition of metastasis” (Celex Oncology Innovations Limited, priority 2010, dated 2026)", "key": {"[1]": {"test_system": "MDA-MB-231 cells", "assay": "Lateral motility assay (wound-heal / scratch)", "assay_type": "cell-based, human", "method": "This assay was used to represent the “free” motility of cancer cells during local spreading. FIG. 5(a) is a plan view from above of a cell culture dish 501 having a semi-confluent layer of cells 502 on its surface, the cells being in an aqueous medium 503.\nIn order to determine lateral motility, a “wound-heal (“scratch”)” test was carried out, in which a scratch 504 of ˜0.5 mm was made through the layer of cells, as shown in FIG. 5(b) which is a side sectional view of the cell culture dish.\nDuring the period of 24 hours following the formation of the scratch, the cells moved into the gap.\nFIGS. 5(c) and 5(d) are schematic plan views of the cell culture dish 501 at time t=zero when the width of the scratch 504 is w0 and time t=24 hours when the width of the scratch 504 is w24, respectively.\n(§1) With the exception of single cell adhesion tests, which are discussed in the following paragraph, experiments were carried out under either; • (i) normal normoxic conditions ([…], 5% carbon dioxide), or • (ii) following 24 hours hypoxic pre-treatment (2% O2, 5% CO2, 93% N2) continued during the assays."}, "[2]": {"test_system": "Mat-LyLu cells", "assay": "Cell growth (proliferation) assay (MTT)", "assay_type": "cell-based, rat", "method": "Cells were plated at 2×10^4 cells/ml in 24-well plates (Becton-Dickinson) and allowed to settle overnight. The cells were then treated for the required time of incubation (24 hours+), with medium changes every 24 hours. At the end of the treatment, the medium was removed, and this was followed by the colorimetric 3-[4,5-dimethylthiazol-2-yl]-2,5-diphenyltetrazolium bromide (MTT) assay (Grimes et al., 1995). Briefly, 0.1 ml MTT (5 mg/ml made up in the growth medium) and 0.4 ml growth medium was added in each well and the plate was incubated for 3-4 hours at 37° C. The medium was then removed from the chambers and replaced with 0.5 ml dimethyl sulfoxide (DMSO) and 0.063 ml glycine buffer (0.1 M glycine and 0.1 M NaCl; pH 10.5). Absorbance at 570 nm was determined 15 minutes after the addition of the glycine buffer. Results were calculated as means of nine repeats of each of the treatment vs. control spectrophotometer readings from individual invasion wells.\nas §1"}, "[3]": {"test_system": "Mat-LyLu cells", "assay": "Invasion assay (Matrigel Transwell)", "assay_type": "cell-based, rat", "description": "This assay is an extension of the transverse migration assay described above. To “invade”, the cells need both (i) to move as in the transverse migration assay and (ii) secrete a proteolytic enzyme to digest their surroundings. The ability of cells to invade neighbouring tissues by enzyme secretion was therefore assessed by using a layer of Matrigel™ (BD Biosciences) spread across the porous membrane of a Transwell® insert.\nFIG. 7 is a schematic side sectional view of an invasion chamber 701 having a Transwell® insert 702 separating the chamber into upper 703 and lower 704 sections. The insert 702 has a migration filter membrane 705 in its base with 8 μm pores 706 extending therethrough. A layer 707 of Matrigel™ is shown coating the filter membrane 705.\nCells 708 were plated at a density of 2×10^4/ml onto the Matrigel™ layer 707 in 24-well plates (Becton-Dickinson) according to the manufacturers' instructions. 50 μl Matrigel™ was seeded at a 1:7 dilution (10 mg/ml stock) onto the inserts and left overnight. Prior to seeding with the cells the Matrigel™ was rehydrated using medium with no additions. This medium was removed prior to seeding the cells.\nCells were plated in a 1-5% FBS chemotactic gradient overnight (12 hours). The nutrient concentration in the medium 709 in the upper section 703 of the chamber was less than the concentration of nutrient in the medium 710 in the lower section 704 to induced movement of the cells through the Matrigel™ layer 707 and through the pores 706 to the underside of the filter membrane 705. At the end of each assay, non-invaded/non-migrated cells were removed from the upper surface of the insert 702 with two different swabs.\nThe number of cells invading to the underside of the insert 702 was determined using crystal violet staining. Invaded cells were fixed for 15 minutes with ice-cold methanol. Then 0.5% crystal violet (in 25% methanol) was added for 15 minutes. The inserts were swabbed again and then washed in water and allowed to dry. Cells were then counted using twelve separate fields of view per insert (×200 magnification). If the difference in the average number of cells invading the two control inserts was more than 40%, the experiment was rejected.\nas §1"}, "[4]": {"test_system": "MDA-MB-231 cells", "assay": "Transverse migration assay (Transwell)", "assay_type": "cell-based, human", "method": "This assay was used to represent the ability of cells to migrate as they intra/extravasate. […] The insert 602 has a migration filter membrane 605 in its base with 8 μm pores 606 extending therethrough.\nCells 607 were plated at a density of 2×10^4/ml on the filter membrane 605 and placed under a growth medium 608 containing 1% foetal bovine serum (FBS). A chemotactic gradient was created across the filter membrane 605 by placing growth medium 609 containing 10% FBS in the lower section 604 of the chamber.\nCells were allowed to migrate across the filter membrane 605 over a period of 24 hours, cells migrating and adhering to the underside of the filter membrane 605.\nAt the end of each assay, non-migrated cells were removed from the upper surface of the insert 602 with two different swabs\nThe number of cells migrating to the underside of the insert 602 was determined using crystal violet staining. Migrated cells were fixed for 15 minutes with ice-cold methanol. Then 0.5% crystal violet (in 25% methanol) was added for 15 minutes. The inserts were swabbed again and then washed in water and allowed to dry. Cells were then counted using twelve separate fields of view per insert (×200 magnification).\nas §1"}, "[5]": {"settings": "Hypoxia, 1 μM, listed as RILUZOLE"}, "[6]": {"settings": "Normoxia, 1 μM, listed as RILUZOLE"}}, "data": [{"smiles": "Nc1nc2ccc(OC(F)(F)F)cc2s1", "note": "[riluzole]", "values": [{"measurement": "lateral motility with increasing concentration", "setting": "[1]; 1 μM, 10 μM and 100 μM, normoxia and hypoxia", "value": "reduced the lateral motility of the cells; the effect was greater under hypoxia"}, {"measurement": "LATERAL MOTILITY", "setting": "[1]; Hypoxia, 1 μM", "value": "decreased"}, {"measurement": "LATERAL MOTILITY", "setting": "[1]; Hypoxia, 10 μM", "value": "decreased"}, {"measurement": "LATERAL MOTILITY", "setting": "[1]; Hypoxia, 100 μM", "value": "decreased"}, {"measurement": "LATERAL MOTILITY", "setting": "[1]; Normoxia, 1 μM", "value": "no effect"}, {"measurement": "LATERAL MOTILITY", "setting": "[1]; Normoxia, 10 μM", "value": "decreased"}, {"measurement": "LATERAL MOTILITY", "setting": "[1]; Normoxia, 100 μM", "value": "decreased"}, {"measurement": "cell proliferation with increasing concentration", "setting": "[2]; 3 μM, 5 μM, 10 μM and 30 μM, 24 hours, normoxia and hypoxia (2% O2)", "value": "decreased cell proliferation dose dependently under both normoxia and hypoxia; the effect was greater under hypoxia"}, {"measurement": "PROLIFERATION (24 hours)", "setting": "[2]; Hypoxia, 3 μM", "value": "no effect"}, {"measurement": "PROLIFERATION (24 hours)", "setting": "[2]; Hypoxia, 5 μM", "value": "tail off"}, {"measurement": "PROLIFERATION (24 hours)", "setting": "[2]; Hypoxia, 10 μM", "value": "tail off"}, {"measurement": "PROLIFERATION (24 hours)", "setting": "[2]; Hypoxia, 30 μM", "value": "tail off"}, {"measurement": "PROLIFERATION (24 hours)", "setting": "[2]; Normoxia, 3 μM", "value": "no effect"}, {"measurement": "PROLIFERATION (24 hours)", "setting": "[2]; Normoxia, 5 μM", "value": "tail off"}, {"measurement": "PROLIFERATION (24 hours)", "setting": "[2]; Normoxia, 10 μM", "value": "tail off"}, {"measurement": "PROLIFERATION (24 hours)", "setting": "[2]; Normoxia, 30 μM", "value": "tail off"}, {"measurement": "INVASIVENESS (no pretreatment)", "setting": "[3]; [5]", "value": "decreased"}, {"measurement": "INVASIVENESS (no pretreatment)", "setting": "[3]; Hypoxia, 1 μM, listed as Riluzole", "value": "significantly inhibited invasiveness"}, {"measurement": "INVASIVENESS (no pretreatment)", "setting": "[3]; Hypoxia, 2.5 μM", "value": "decreased"}, {"measurement": "INVASIVENESS (no pretreatment)", "setting": "[3]; Hypoxia, 5 μM", "value": "decreased"}, {"measurement": "INVASIVENESS (no pretreatment)", "setting": "[3]; [6]", "value": "decreased"}, {"measurement": "INVASIVENESS (no pretreatment)", "setting": "[3]; Normoxia, 1 μM, listed as Riluzole", "value": "significantly inhibited invasiveness"}, {"measurement": "INVASIVENESS (no pretreatment)", "setting": "[3]; Normoxia, 2.5 μM", "value": "decreased"}, {"measurement": "INVASIVENESS (no pretreatment)", "setting": "[3]; Normoxia, 5 μM", "value": "decreased"}, {"measurement": "TRANSVERSE MIGRATION", "setting": "[4]; Hypoxia, 1 μM", "value": "reduced the transverse migration in a statistically significant way"}, {"measurement": "TRANSVERSE MIGRATION", "setting": "[4]; [5]", "value": "decreased"}, {"measurement": "TRANSVERSE MIGRATION", "setting": "[4]; Hypoxia, 10 μM", "value": "reduced the transverse migration in a statistically significant way"}, {"measurement": "TRANSVERSE MIGRATION", "setting": "[4]; Hypoxia, 10 μM, listed as RILUZOLE", "value": "decreased"}, {"measurement": "TRANSVERSE MIGRATION", "setting": "[4]; Hypoxia, 100 μM", "value": "reduced the transverse migration in a statistically significant way"}, {"measurement": "TRANSVERSE MIGRATION", "setting": "[4]; Hypoxia, 100 μM, listed as RILUZOLE", "value": "decreased"}, {"measurement": "TRANSVERSE MIGRATION", "setting": "[4]; Normoxia, 1 μM", "value": "reduced the transverse migration of the cells in a statistically significant way"}, {"measurement": "TRANSVERSE MIGRATION", "setting": "[4]; [6]", "value": "decreased"}, {"measurement": "TRANSVERSE MIGRATION", "setting": "[4]; Normoxia, 10 μM", "value": "no effect"}, {"measurement": "TRANSVERSE MIGRATION", "setting": "[4]; Normoxia, 100 μM", "value": "reduced the transverse migration of the cells in a statistically significant way"}, {"measurement": "TRANSVERSE MIGRATION", "setting": "[4]; Normoxia, 100 μM, listed as RILUZOLE", "value": "decreased"}]}]}
